“Also recorded” adds a separate entry of the source.
What was measured:
[1] = system: human tumor Tregs (TI-Tregs); assay: viability of sorted tumor Tregs vs peripheral Tregs at peripheral-Treg EC20 dose; format: cell-based; settings: at peripheral-Treg EC20 (IC20) dose; TI-Tregs from clear cell renal carcinoma expanded ex vivo
Description: To reduce study complexity and cost, the inventors first assessed the effect of a library of 1,554 FDA-approved and investigational compounds on human-derived P-Treg viability at a single, relatively large concentration (5 μM). For this screen, human P-Tregs were flow sorted, expanded ex vivo, and drug treated in a 96-well plate format (FIG. 6A). The inventors then selected 195 compounds that inhibited P-Treg viability ≥60% (FIG. 6B). To further reduce the number of candidate drugs, the inventors then generated 10-point drug response curves to identify the 48 h EC20 concentration of the 195 compounds, then selected a repertoire of 86 compounds with the lowest EC20 for efficient perturbational profile analysis in a 96-well format, when considering inclusion of vehicle controls (DMSO). As previously reported (Bush et al., 2017; Douglass et al., 2020), the 48 h EC20 (maximum sublethal) concentration was selected to effectively assess the 24 h drug mechanism of action, while reducing confounding effects arising from activation of cell stress or death pathways. Finally, the EC20 concentration of each compound was then used to perturb TI-Tregs flow-sorted from a chemo-naïve human clear cell carcinoma specimen and expanded ex vivo, into 96-well plates, followed by RNA-seq profiling using the fully automated PLATE-Seq technology (Bush et al., 2017; Douglass et al., 2020). Viability, as well as perturbational RNA-seq profiles of TI-Tregs were collected (FIGS. 6C-D). […]

[2] = system: TI-Treg MR proteins (17-MR protein signature); assay: PLATE-Seq perturbational RNA-seq of TI-Tregs with VIPER / OncoTreat analysis; format: cell-based, human; settings: for patient-by-patient inhibition of TI-Treg vs P-Treg MR activity (OncoTreat): individual TI- vs. P-Treg signatures of all 36 patients
Description: To reduce study complexity and cost, the inventors first assessed the effect of a library of 1,554 FDA-approved and investigational compounds on human-derived P-Treg viability at a single, relatively large concentration (5 μM). For this screen, human P-Tregs were flow sorted, expanded ex vivo, and drug treated in a 96-well plate format (FIG. 6A). The inventors then selected 195 compounds that inhibited P-Treg viability ≥60% (FIG. 6B). To further reduce the number of candidate drugs, the inventors then generated 10-point drug response curves to identify the 48 h EC20 concentration of the 195 compounds, then selected a repertoire of 86 compounds with the lowest EC20 for efficient perturbational profile analysis in a 96-well format, when considering inclusion of vehicle controls (DMSO). As previously reported (Bush et al., 2017; Douglass et al., 2020), the 48 h EC20 (maximum sublethal) concentration was selected to effectively assess the 24 h drug mechanism of action, while reducing confounding effects arising from activation of cell stress or death pathways. Finally, the EC20 concentration of each compound was then used to perturb TI-Tregs flow-sorted from a chemo-naïve human clear cell carcinoma specimen and expanded ex vivo, into 96-well plates, followed by RNA-seq profiling using the fully automated PLATE-Seq technology (Bush et al., 2017; Douglass et al., 2020). Viability, as well as perturbational RNA-seq profiles of TI-Tregs were collected (FIGS. 6C-D). By using the differential protein activity signature in drug- vs. vehicle control-treated TI-Tregs, we identified the compounds capable of inducing the most statistically significant inactivation of TI-Treg-specific MR proteins (OncoTreat algorithm (Alvarez et al., 2018). From this analysis, 32 compounds were nominated as statistically significant inhibitors of the 17-MR protein signature (FIG. 7B), seven of which preferentially depleted TI-Treg vs. P-Treg viability in vitro (FIGS. 6C-D), and which were also found to inhibit patient-by-patient TI-Treg vs P-Treg MRs across all tumor types and nearly all patients (FIG. 6E).
Wells of drug-treated Tregs were RNA-Sequenced and each normalized with viperSignature against the internal DMSO-control wells on the same PLATE. VIPER was run on the normalized gene expression using the T-cell ARACNe network inferred from sorted bulk-RNA-Sequencing clinical data. Drugs were ranked on their overall inversion across patients of the 17-gene Master Regulator signature previously identified and validated by CRISPR (FIG. 7B), as well as on their patient-by-patient inversion of Tumor-Treg vs Peripheral-Treg protein activity signature by OncoTreat (FIG. 6E).

[3] = system: MC38 syngeneic tumor model; assay: MC38 tumor growth and survival in immune-competent C57BL/6J mice; format: in vivo
Description: 10 C57BL/6J mice per treatment arm were implanted with subcutaneous MC38 tumor cells. Treatment was initiated after 12 days of initial tumor growth, at which point mice were monitored for tumor volume until exceeding 1000 mm^3 or ulceration exceeding a diameter of 5 mm. […] Floxuridine and triapine were IP daily from day 12-18 at 1 mg/kg and 5 mg/kg, respectively, also reflecting 1/10th the standard murine dose. Mice receiving anti-PD-1 were administered anti-PD-1 IP on days 12, 15, and 18.

MC38 tumors = assay: MC38 tumor growth and survival in immune-deficient NSG mice; format: in vivo
Description: To assess whether low-dose gemcitabine effects were immune-mediated, we performed parallel dose titrations in immune-competent C57BL/6J mice and severely immune-deficient NSG (NOD.Cg-Prkdc^scid Il2rg^tm1Wj1/SzJ) mice lacking both innate and adaptive immunity.
To test whether immune-dependent activity could be observed in this range of concentrations, we dosed cohorts of mice with 1-10 mg/kg gemcitabine, with an additional cohort of C57BL/6J mice receiving anti-PD-1 in combination.
To further assess the doses at which gemcitabine inhibits tumor growth and the immune-mediated effects of gemcitabine, the inventors performed parallel dose titrations of Gem in immune-competent C57BL/6J mice and immune-deficient NSG (NOD.Cg-Prkdc^scid Il2rg^tm1Wjl/SzJ) mice, administering doses ranging from 0.12 mg/kg up to 120 mg/kg as shown in FIGS. 4D-E. At least 5 mice were treated per treatment arm. Doses were administered IP on days 12, 15, and 18, and treatment response was assessed by and Kaplan-Meier test (FIG. 8E).

[4] = system: TRC3 cluster Tregs (enriched for TI-Treg MRs); assay: scRNA-seq of MC38 tumor- and spleen-derived Tregs after gemcitabine; format: in vivo, FoxP3Yfp-Cre mice; settings: 24 hours after single 12 mg/kg dose

Row | SMILES | differential TI-Treg vs. P-Treg viability reduction (toxicity) [1] | patient-by-patient inhibition of TI-Treg vs P-Treg MR activity (OncoTreat) [2] | tumor growth inhibition ([3]; floxuridine 1 mg/kg IP daily day 12-18, alone or with anti-PD-1) | inhibition (down-regulation) of the 17-MR TI-Treg protein activity signature ([2]; TI-Tregs treated at EC20, 24 h, drug vs DMSO, VIPER protein activity) | efficacy in dose titration ([3]; between 12 mg/kg and 1.2 mg/kg, C57BL/6J) | dose range found to be immunogenic ([3]; dosed Q3D) | advantage in C57BL/6 vs NSG mice ([3]; gemcitabine 1.2 mg/kg, p=0.09) | survival C57BL/6J vs. NSG ([3]; gemcitabine 10 mg/kg, p=0.253) | tumor growth kinetics vs vehicle ([3]; gemcitabine 12 mg/kg IP days 12, 15, 18, late stage MC38, p=0.003) | survival vs vehicle ([3]; gemcitabine 12 mg/kg IP days 12, 15, 18, late stage MC38, p=0.006) | tumor growth relative to vehicle control ([3]; gemcitabine 120 mg/kg, C57BL/6J, p<0.001 by Cox regression) | difference between C57BL/6J and NSG strains ([3]; gemcitabine 120 mg/kg, p=0.19) | efficacy in dose titration (MC38 tumors; between 12 mg/kg and 1.2 mg/kg, NSG) | activity in NSG mice (MC38 tumors; gemcitabine 3 mg/kg, p=0.84) | tumor growth relative to vehicle control (MC38 tumors; gemcitabine 120 mg/kg, NSG, p<0.001 by Cox regression) | TRC1 occupancy [4] | change of TRC3 occupancy in spleen population ([4]; spleen) | TRC3 cluster frequency among TI-Tregs ([4]; tumor, vehicle 30.1%, p=1.51e-20) | tumor growth inhibition ([3]; triapine 5 mg/kg IP daily day 12-18, alone or with anti-PD-1)
1 | O=c1[nH]c(=O)n([C@H]2C[C@H](O)[C@@H](CO)O2)cc1F [floxuridine] | among the top 6 inducing the most significant differential TI- vs. P-Treg viability reduction | among the seven most significant TI-Treg MR activity inhibitors | gemcitabine was the only treatment found to significantly inhibit tumor growth |  |  |  |  |  |  |  |  |  |  |  |  |  |  |  | 
2 | Nc1ccn([C@@H]2O[C@H](CO)[C@@H](O)C2(F)F)c(=O)n1 [gemcitabine] | preferential cytotoxic capacity against TI-Tregs; also recorded: preferentially toxic to TI-Tregs; also recorded: among the top 6 inducing the most significant differential TI- vs. P-Treg viability reduction | among the seven most significant TI-Treg MR activity inhibitors |  | inhibits transcriptional activity of TI-Treg MRs | efficacy was lost | 3 to 10 mg/kg | trending but non-significant advantage | trending survival advantage | significantly inhibit tumor growth; also recorded: significant reduction in growth kinetics | prolongation of survival | inhibited tumor growth | no significant difference | efficacy was lost | lack any activity | inhibited tumor growth | proportional increase | virtually no change | 14.9% | 
3 | NC(=S)N/N=C/c1ncccc1N [triapine] | among the top 6 inducing the most significant differential TI- vs. P-Treg viability reduction | among the seven most significant TI-Treg MR activity inhibitors |  |  |  |  |  |  |  |  |  |  |  |  |  |  |  |  | gemcitabine was the only treatment found to significantly inhibit tumor growth
